Experimental data as given in article PMC3597730, “Novel Phenolic Inhibitors of Small/Intermediate-Conductance Ca^2+-Activated K^+ Channels, KCa3.1 and KCa2.3” (PLoS ONE, 2013).
Where “and” joins values, the source holds several entries; their conditions need not be identical. Equal entries are not always repeated. Entries after “also recorded” stand apart in the source; their conditions may differ. Where two headings read alike, the source gives them in different places.

Tests used:
[1] = biological target: T1, KCa3.1 channels in 3T3 fibroblasts (Mus musculus, UniProt O89109); assay: Whole-cell patch-clamp of KCa3.1 currents in 3T3 fibroblasts; type: cell-based; conditions: for KCa3.1 blocking effect (in words): concentrations up to 50 µM as in Table 1
T1 construct: KCa3.1 channels in 3T3 fibroblasts; endogenous in cells; host or cells: 3T3-L1 mouse embryonic fibroblasts

[2] = biological target: T2, cloned human KCa3.1 channel (Homo sapiens, UniProt O15554); assay: Inside-out patch recordings from hKCa3.1-overexpressing HEK293 cells; type: biochemical; conditions: inside-out patches
T2 construct: expressed in transfected cells; gift of Khaled Houamed, University of Chicago

[3] = biological target: T3, hKCa2.3 (Homo sapiens, UniProt Q9UGI6); assay: Whole-cell patch-clamp of hKCa2.3 in COS7 cells; type: cell-based
T3 construct: expressed in transfected cells; host or cells: COS7

[4] = biological target: T3, hKCa2.3; assay: Inside-out single-channel experiments on hKCa2.3; type: biochemical
[5] = test system: T4, KCa1.1; assay: Whole-cell patch-clamp of KCa1.1 in U251 glioblastoma cells; type: cell-based, human; conditions: for KCa1.1 effect (in words): U251 glioblastoma cells, 13b 1 µM, caffeic acid 10 µM
T4 construct: KCa1.1 in human U251 glioblastoma cells; endogenous in cells; host or cells: U251 glioblastoma cells

[6] = biological target: T5, hKv1.2 (Homo sapiens, UniProt P16389); assay: Whole-cell patch-clamp of cloned hKv1.2; type: cell-based
T5 construct: expressed in transfected cells; host or cells: B82 murine fibroblasts (Methods)

[7] = test system: T6, hKv1.3; assay: Whole-cell patch-clamp of cloned hKv1.3; type: cell-based, human
T6 construct: expressed in transfected cells

[8] = test system: T7, hERG channels; assay: Whole-cell patch-clamp of hERG tail currents in HEK293 cells; type: cell-based, human; conditions: 13b 1 µM; caffeic acid, flufenamic acid 10 µM (Table S1)
T7 construct: expressed in transfected cells; gift of Craig January, University of Wisconsin

[9] = test system: T8, hERG; assay: as above; type: cell-based, human; conditions: human, HEK293 cells expressing hERG, pH 7.4, hERG
T8 construct: expressed in transfected cells; gift of Craig January, University of Wisconsin

[10] = test system: inward-rectifying K+ current (Kir) in U251 glioblastoma cells; assay: Whole-cell patch-clamp of native inward-rectifying K+ current in U251 cells; type: cell-based, human; conditions: 1 µM, at −100 mV, n = 5
[11] = test system: 3T3 fibroblasts; assay: Cell proliferation assay (Janus B Green staining); type: cell-based, mouse; conditions: for change of proliferation vs. vehicle-treated controls: 3T3 cells
Procedure: Cell proliferation was spectrophotometrically assessed as described previously with some modifications. Briefly, 3T3 fibroblasts (1500 cells/well) were seeded in 96-well plates (TPP. Switzerland), cultured in DMEM containing 10% FCS (Lonza, Switzerland) with 13b or vehicle (DMSO), and formalin-fixed at days 0,1,2 and 3. To exclude the possibility that DMSO as vehicle affected the cell viability per se, final DMSO concentrations were the same for each concentration of 13b and the controls. Fixed cells were stained for 5 minutes with 50 ul/well of 0.3% Janus B Green dye (Acros Organics, Belgium) at room temperature with constant stirring followed by a de-staining step with water. Dye was eluted with 200 ul/well of 0.5 M HCl of hydrochloric acid and top-read measurements of absorbance were performed in a microplate reader (Sinergy HT, Biotek, USA) at 595 nm.

[12] = test system: mixed KCa3.1 and KCa2.3 currents in PCAEC; assay: Whole-cell patch-clamp of KCa currents in porcine coronary artery endothelial cells; type: cell-based
[13] = test system: porcine coronary artery rings; assay: Isometric myography: 5-HT-induced contractions; conditions: for Δg, 1st stimulation / Δg, 2nd stimulation: 1 µM 5-HT
Procedure: (§1) Myography on porcine coronary artery rings was performed as described in detail previously, [30]. In brief, left anterior descending arteries or posterior descending arteries were cut into rings (3 mm long) and rings were mounted onto a isometric force transducer (Pioden UF1, Graham Bell House, Canterbury, UK). The organ bath contained a 5 ml Krebs buffer maintained at 37°C and gassed with 95% O2/5% CO2. The composition of the Krebs buffer was as follows (in mM): NaCl 120, NaHCO3 24.5, CaCl2 2.4, KCl 4.7, MgSO4 1.2, KH2PO4 1 and glucose 5.6, pH 7.4. Each ring was passively stretched to an initial tension of 1 gr (10 mN). Changes in force were monitored and recorded on a computer using a Mac Lab System/8e program (AD Instruments Inc, Milford, Ma, USA), and digitalized at a sample rate of 0.5 sec.
(§2) To measure specifically endothelium-derived hyperpolarization-mediated vasorelaxation (EDH), the NO-synthase blocker, Nω-nitro-L-arginine (L-NNA, 300 µM), and the cyclooxygenase blocker, indomethacin (10 µM), were added to the buffer. Preparations were washed three times and were allowed to equilibrate for 40 min. Within this period, the incubation medium was renewed every 20 min. […] Ten min later, bradykinin (1 µM) was added for another 10 min, followed by washout (over at least 10 min). This protocol was repeated (2nd stimulation). Thereafter, we performed a 3rd round of pre-contraction and vasorelaxation, but using the vasospasmic thromboxane analogue U46619 (0.2 µM) as vasocontracting agent. At the end of the experiments, rings were allowed to contract maximally in a KCl (60 mM) buffer for 10 min followed by addition of the compounds. Finally, sodium nitroprusside (10 µM) was added to achieve maximal endothelium-independent vasorelaxation.
(§3) DMSO as the vehicle had no vasoactive effect per se on the tissue. Other compounds were dissolved in Milli-Q water.
(§4) For data analysis, we determined absolute increases in force to 5-HT, U46619, or 60 mM KCl. Bradykinin-induced relaxations were determined as % change of pre-contraction to either vasocontracting compound and relative to the fully relaxed state (in the absence of the vasocontracting agent).

[14] = test system: porcine coronary artery rings; assay: Isometric myography: U46619-induced contractions; conditions: for Δg: 0.2 µM U46619
Procedure: as §1, §2, §3, §4

[15] = test system: porcine coronary artery rings; assay: Isometric myography: bradykinin-induced (EDH) relaxation; conditions: for % relaxation, 5-HT-precontraction / % relaxation, U46619-precontraction: 1 µM bradykinin
Procedure: as §1, §2, §3, §4

[16] = test system: porcine coronary artery rings; assay: Isometric myography: contractions to 60 mM K+
Procedure: as §1
as §2, with “vasorelaxation. […]” for “vasorelaxation.”
as §4

[17] = test system: porcine coronary artery rings; assay: Isometric myography: endothelium-independent relaxation to sodium nitroprusside; conditions: pre-contracted by 60 mM K+
Procedure: as §1
as §2, with “vasorelaxation. […]” for “vasorelaxation.”
as §4

[18] = whole-cell, 3T3 fibroblasts, read-out: EC50 of KCa3.1 inhibition
[19] = 13b 0.5 µM, SKA-31 1 µM, alone or combined
[20] = SKA-31 10 µM, alone or with 13b 0.5 µM

T5 sequence (P16389 whole entry): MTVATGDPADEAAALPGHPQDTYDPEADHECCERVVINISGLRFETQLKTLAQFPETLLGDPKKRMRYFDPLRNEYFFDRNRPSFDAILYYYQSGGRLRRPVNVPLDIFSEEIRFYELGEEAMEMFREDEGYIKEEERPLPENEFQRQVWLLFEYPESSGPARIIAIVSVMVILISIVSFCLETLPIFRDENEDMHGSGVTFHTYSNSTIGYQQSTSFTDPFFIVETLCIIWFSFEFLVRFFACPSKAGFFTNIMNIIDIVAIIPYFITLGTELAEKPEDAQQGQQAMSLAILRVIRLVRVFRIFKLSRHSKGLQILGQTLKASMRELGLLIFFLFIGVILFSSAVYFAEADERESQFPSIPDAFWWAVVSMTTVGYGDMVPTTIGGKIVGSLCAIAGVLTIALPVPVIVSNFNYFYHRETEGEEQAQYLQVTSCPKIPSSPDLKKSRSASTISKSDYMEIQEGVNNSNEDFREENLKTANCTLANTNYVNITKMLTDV
T3 sequence (Q9UGI6 whole entry): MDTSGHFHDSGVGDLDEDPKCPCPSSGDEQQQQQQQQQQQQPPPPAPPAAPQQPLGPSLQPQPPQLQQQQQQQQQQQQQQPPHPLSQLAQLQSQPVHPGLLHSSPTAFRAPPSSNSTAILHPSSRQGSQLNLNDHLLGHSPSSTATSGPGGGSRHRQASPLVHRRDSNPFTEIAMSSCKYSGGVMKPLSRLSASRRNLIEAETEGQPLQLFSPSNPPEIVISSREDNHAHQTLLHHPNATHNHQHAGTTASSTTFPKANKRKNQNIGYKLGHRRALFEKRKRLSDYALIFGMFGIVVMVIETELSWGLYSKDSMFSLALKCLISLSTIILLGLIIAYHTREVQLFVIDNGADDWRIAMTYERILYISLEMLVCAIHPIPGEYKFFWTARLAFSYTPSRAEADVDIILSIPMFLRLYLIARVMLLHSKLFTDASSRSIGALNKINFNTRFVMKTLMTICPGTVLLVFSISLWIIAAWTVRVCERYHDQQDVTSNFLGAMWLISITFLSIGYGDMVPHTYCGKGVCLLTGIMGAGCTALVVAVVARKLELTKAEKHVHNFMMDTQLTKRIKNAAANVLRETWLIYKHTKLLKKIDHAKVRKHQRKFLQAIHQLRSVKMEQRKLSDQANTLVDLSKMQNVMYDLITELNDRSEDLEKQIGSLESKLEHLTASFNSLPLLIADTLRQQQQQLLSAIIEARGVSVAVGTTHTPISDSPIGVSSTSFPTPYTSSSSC

O=C(OCc1cc(COC(=O)c2ccc(O)c(F)c2)cc(COC(=O)c2ccc(O)c(F)c2)c1)c1ccc(O)c(F)c1 [Compound 13b, [3,5-bis[(3-fluoro-4-hydroxy-benzoyl)oxymethyl]phenyl]methyl 3-fluoro-4-hydroxy-benzoate]
remaining activity at 1 µM ([1]; KCa3.1 whole-cell current, 3T3 fibroblasts, 1 µM free Ca2+ in pipette, compound 1 µM, mean ± SEM, n ≥3, read-out: % of control at 1 µM): 4 ± 1% | EC50 ([1]; KCa3.1 whole-cell, 1 µM SKA-31, read-out: EC50 to suppress the SKA-31-induced current): 161 ± 121 nM | Hill coefficient ([1]; KCa3.1 whole-cell, 3T3 fibroblasts): ~1 | KCa3.1 blocking effect (in words) ([1]; whole-cell, 3T3 fibroblasts): Complete inhibition | EC50 [1, 18]: 19 nM | EC50 ([2]; HEK293, 0.5 µM free Ca2+, read-out: EC50 of hKCa3.1 inhibition): 14 nM | Hill coefficient ([2]; hKCa3.1): ~1 | remaining activity at 1 µM ([3]; COS-7, hKCa2.3, compound 1 µM, mean ± SEM, n ≥ 3, read-out: % of control at 1 µM): 4 ± 2% | Hill coefficient ([3]; hKCa2.3 whole-cell): ~1 | EC50 ([3]; whole-cell, COS7 cells, 1 µM free Ca2+, read-out: EC50 of hKCa2.3 inhibition): 0.36 nM | EC50 ([4]; inside-out single channel experiments, read-out: EC50 of hKCa2.3 inhibition): 0.241 ± 0.129 nM | Hill coefficient ([4]; inside-out, hKCa2.3): ~1 | KCa1.1 effect (in words) [5]: not blocked | % of control at 1 µM ([5]; hKCa1.1, compound 1 µM): 103 ± 3% | inhibition at 0.1 µM ([6]; 100 nM): 19% | remaining activity at 1 µM ([6]; hKv1.2, compound 1 µM, read-out: % of control at 1 µM): 11 ± 2% | EC50 ([6]; read-out: EC50 of hKv1.2 block): 550 ± 10 nM | hKv1.3 blocking effect (in words) ([7]; concentration of 10 µM as printed): not inhibited; also recorded: did not block | % of control at 1 µM ([7]; hKv1.3, compound 1 µM): 96.4 ± 0.2% | hERG effect (in words) [8]: not blocked; also recorded: did not block | activity at 1 µM ([9]; compound 1 µM, read-out: % of control at 1 µM): 94 ± 3% | Kir current, % of control [10]: 98±2% | change of proliferation vs. vehicle ([11]; 0.5 µM, day 3): −23% | change of proliferation vs. vehicle ([11]; 2 µM, day 3): –20% | cytotoxicity (in words) ([11]; cultured 3T3 fibroblasts): not cytotoxic; also recorded: non-toxic | inhibition (reduction) of cell proliferation ([11]; day 3, 0.5 and 2 µM): 20% | block of current potentiated by 1 µM SKA-31 (in words) ([12]; 1 µM 13b): almost fully blocked | KCa current, % of control ([12]; whole-cell, compound 1 µM): 14±7% | Δg, 1st stimulation [13, 19]: 0.7 ± 0.1 g | Δg, 2nd stimulation [13, 19]: 0.7 ± 0.1 g | change of amplitude of 5-HT contraction vs. vehicle, 1st stimulation ([13]; 13b 0.5 µM): +74% | change of amplitude of 5-HT contraction vs. vehicle, 2nd stimulation ([13]; 13b 0.5 µM): +90% | Δg [14, 19]: 2.8 ± 0.2 g | change of U46619 contraction vs. vehicle ([14]; 13b 0.5 µM, alone or with SKA-31 1 µM): +29% | % relaxation, 5-HT-precontraction [15, 19]: 24±2% | % relaxation, U46619-precontraction [15, 19]: −1±1% | continued contraction of U46619-precontracted rings with bradykinin ([15]; 13b 0.5 µM): +1 % contraction | Δg, contraction to 60 mM K+ [16, 19]: 3.1 ± 0.3 g | % relaxation to 10 µM SNP [17, 19]: 84±4%

O=C(O)/C=C/c1ccc(O)c(O)c1 [Caffeic Acid, (E)-3-(3,4-dihydroxyphenyl)propenoic acid]
remaining activity at 10 µM ([1]; read-out: KCa3.1 current blocked, % of control): 28 ± 10% | KCa3.1 blocking effect (in words) ([1]; whole-cell, 3T3 fibroblasts): Complete inhibition | EC50 [1, 18]: 1300 nM and 1000 to 10000 nM | remaining activity at 10 µM ([3]; COS-7, read-out: % of control at 10 µM): 108 ± 7% | remaining activity at 50 µM ([3]; COS-7, read-out: % of control at 50 µM): 97 ± 1% | KCa2.3 blocking effect (in words) ([3]; micromolar concentrations): no blocking effects | KCa1.1 effect (in words) [5]: no blocking or activating effects | % of control at 10 µM ([5]; hKCa1.1, compound 10 µM): 103 ± 14% | hKv1.2 blocking effect (in words) ([6]; flufenamic acid and caffeic acid 10 and 50 µM, 13c 1 µM): did not block | remaining activity at 10 µM ([6]; hKv1.2, compound 10 µM, read-out: % of control at 10 µM): 100 ± 2% | remaining activity at 50 µM ([6]; hKv1.2, compound 50 µM, read-out: % of control at 50 µM): 97 ± 1% | hERG effect (in words) [8]: not blocked | activity at 10 µM ([9]; compound 10 µM, read-out: % of control at 10 µM): 97 ± 6% | change of proliferation vs. vehicle-treated controls ([11]; 25 µM): −27% | change of proliferation vs. vehicle-treated controls ([11]; 50 µM): −56% | mixed KCa3.1/KCa2.3 current, % of control ([12]; 50 µM, n = 1): 6%

Nc1nc2c(ccc3ccccc32)s1 [SKA-31, naphtho[1,2-d]thiazol-2-ylamine]
Δg, 1st stimulation [13, 19]: 0.4 ± 0.1 g | Δg, 2nd stimulation [13, 19]: 0.5 ± 0.1 g | Δg, 1st stimulation [13, 20]: 0.4 ± 0.1 g | Δg, 2nd stimulation [13, 20]: 0.23 ± 0.02 g | change of amplitude of 5-HT contraction vs. vehicle, 2nd stimulation [13, 20]: −44% | Δg [14, 19]: 1.9 ± 0.5 g | Δg [14, 20]: 1.7 ± 0.2 g | % relaxation, 5-HT-precontraction [15, 19]: 65±6% | % relaxation, U46619-precontraction [15, 19]: 5% and 5±1% | % relaxation, 5-HT-precontraction [15, 20]: 47±8% | % relaxation, U46619-precontraction [15, 20]: 10% and 10±2% | change of bradykinin relaxation vs. vehicle, 5-HT-precontracted rings [15, 19]: +110% | change of bradykinin relaxation vs. vehicle, 5-HT-precontracted rings [15, 20]: +52% | Δg, contraction to 60 mM K+ [16, 19]: 3.2 ± 0.5 g | Δg, contraction to 60 mM K+ [16, 20]: 2.5 ± 0.4 g | % relaxation to 10 µM SNP [17, 19]: 82±8% | % relaxation to 10 µM SNP [17, 20]: 80±5%
